Experimental data reported in patent publication US10336702B2, “Pharmaceutically active compounds” (BERGENBIO ASA, priority 2015, dated 2019).

Tests used:
[1] = molecular target: T1, Akt1 (Homo sapiens, UniProt P31749); assay: Akt activation assay (PDK1-mediated activation, LANCE Ultra crosstide TR-FRET), Akt1; assay type: biochemical; conditions: read-out: Biological Assay 1 IC50 (nM) Akt1
T1 construct: unspecified tag, removed (detagged) (cleaved yes); purchased SignalChem and Proteros (Akt1); Merck Millipore (PDK1) 14-452 (PDK1); none given for Akt1
T1 sequence (P31749 whole entry): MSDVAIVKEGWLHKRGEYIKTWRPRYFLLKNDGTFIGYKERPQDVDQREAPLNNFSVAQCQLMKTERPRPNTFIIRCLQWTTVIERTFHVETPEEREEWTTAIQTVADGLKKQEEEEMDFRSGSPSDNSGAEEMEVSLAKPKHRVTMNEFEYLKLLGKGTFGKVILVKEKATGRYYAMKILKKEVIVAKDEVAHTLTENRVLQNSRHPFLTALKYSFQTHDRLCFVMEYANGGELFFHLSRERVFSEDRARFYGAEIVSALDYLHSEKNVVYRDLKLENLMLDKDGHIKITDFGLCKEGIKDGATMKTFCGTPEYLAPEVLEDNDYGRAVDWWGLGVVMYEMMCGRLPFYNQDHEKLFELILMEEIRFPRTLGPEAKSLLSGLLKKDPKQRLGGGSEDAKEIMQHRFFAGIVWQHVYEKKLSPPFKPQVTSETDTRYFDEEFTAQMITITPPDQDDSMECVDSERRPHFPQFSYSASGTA
How it was run: (§1)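 Two-step cascade format: Akt1, Akt2 or Akt3 phosphorylates Ulight-crosstide (100 nM) only after activation by 5 nM PDK1 in presence of PtdIns(3,4,5)P3 vesicles and 100 μM ATP. Product quantified by Eu-antibody TR-FRET after 30 min reaction.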

[2] = molecular target: T2, p-Akt2 in WM115 cells (Homo sapiens, UniProt P31751); assay: Phospho-Akt cellular SureFire assay, p-Akt2 in WM115 cells; assay type: cell-based; conditions: insulin stimulated, read-out: Biological Assay 2 IC50 (nM) Akt2 WM115
T2 construct: SureFire assays to detect cellular p-Akt1, p-Akt2 and p-Akt3 levels in WM115 cells (Akt2/3) and LNCaP cells (Akt1); endogenous in cells; host or cells: WM115 (ECACC 91061232), insulin-stimulated
T2 sequence (P31751 whole entry): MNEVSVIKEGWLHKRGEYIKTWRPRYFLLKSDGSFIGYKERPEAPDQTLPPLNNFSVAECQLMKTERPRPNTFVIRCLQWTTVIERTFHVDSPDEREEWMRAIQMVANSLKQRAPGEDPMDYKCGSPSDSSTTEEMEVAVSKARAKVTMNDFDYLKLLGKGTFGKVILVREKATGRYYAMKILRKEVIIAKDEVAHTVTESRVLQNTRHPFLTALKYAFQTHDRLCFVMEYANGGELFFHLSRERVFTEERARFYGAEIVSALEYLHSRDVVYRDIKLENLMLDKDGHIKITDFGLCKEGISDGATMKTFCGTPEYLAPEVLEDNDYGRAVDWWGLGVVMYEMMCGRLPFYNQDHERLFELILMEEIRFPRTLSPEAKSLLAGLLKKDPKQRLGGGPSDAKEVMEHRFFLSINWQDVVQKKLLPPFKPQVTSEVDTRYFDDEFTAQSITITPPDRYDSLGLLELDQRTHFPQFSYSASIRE
Excerpt: (§2) Biological Assay 2: Phospho-Akt (p-Akt) Cellular SureFire Assays
(§3) The following describes SureFire assays to detect cellular p-Akt1, p-Akt2 and p-Akt3 levels in WM115 cells (Akt2/3) and LNCaP cells (Akt1). In the case of Akt2 and Akt3, Streptavidin-coated donor beads capture a biotinylated anti-mouse antibody that in turn recognises a mouse total Akt antibody which is specific to each isoform. The protein A-conjugated acceptor beads capture an antibody that recognises the phosphoprotein. Similarly in the Akt1 kit, the donor and acceptor beads are used to capture each antibody pair consisting of an antibody that specifically recognises Akt1 as well as an antibody that recognises the phosphoprotein. In each case, close proximity of the beads allows energy transfer from donor to acceptor.
(§4) Custom kit from TGR/Perkin Elmer for Akt2/3 containing anti-(pThr308)Akt antibody and biotinylated anti-mouse capture antibody.
Total Akt2 antibody (NEB UK, 5239)
(§5) WM115 cells (ECACC, 91061232) cultured in MEM culture media (M2279) supplemented with 2 mM L-glutamine (G7513), 1% non-essential amino acids (M7145), 1% sodium pyruvate (S8636) and 10% FBS (F0804)
(§6) Cell treatment: 1×10^5 WM115 cells or 5×10^4 LNCaP cells were seeded into each well of a 96 well poly-D-Lysine coated tissue culture plate and incubated overnight at 37° C.+5% CO2. Media was removed from cells and replaced with assay buffer consisting of the full culture media described above but with 0.1% FBS instead of 10% FBS. Only WM115 cells were stimulated at 37° C.+5% CO2 for 10 min with 5 μL insulin at a final concentration of 100 nM. Cells were incubated with 5 μL of test compound at a final DMSO concentration of 0.3% for 15 min at 37° C.+5% CO2. Cell lysis was carried out according to kit instructions.
(§7) Assay format (performed in subdued lighting): 4 μL cell lysate and 5 μL reaction buffer were incubated together in the dark at room temperature for 2 h. Reaction buffer was supplemented with a 1/5 dilution of activation buffer, a 1/50 dilution of acceptor beads and in the case of the custom kits, antibodies were added at dilutions of 1/20,000 for Akt2 and 1/2,000 for Akt3.
(§8) 2 μL dilution buffer, supplemented with a 1/20 dilution of donor beads was added to each well and incubated for a further 2 h. Plates were read with the EnVision® Multilabel Plate Reader and using the AlphaScreen settings. Compound IC50 was determined using a 4-parameter equation.

[3] = molecular target: T3, Akt2 (Homo sapiens, UniProt P31751); assay: Akt activation assay (PDK1-mediated activation, LANCE Ultra crosstide TR-FRET), Akt2; assay type: biochemical; conditions: read-out: Biological Assay 1 IC50 (nM) Akt2
T3 construct: unspecified tag, removed (detagged) (cleaved yes); purchased SignalChem and Proteros (Akt2); Merck Millipore (PDK1) 14-452 (PDK1); none given for Akt2
T3 sequence (P31751 whole entry): as above
How it was run: as §1

[4] = molecular target: T4, Akt3 (Homo sapiens, UniProt Q9Y243); assay: Akt activation assay (PDK1-mediated activation, LANCE Ultra crosstide TR-FRET), Akt3; assay type: biochemical; conditions: read-out: Biological Assay 1 IC50 (nM) Akt3
T4 construct: unspecified tag, removed (detagged) (cleaved yes); purchased SignalChem and Proteros (Akt3); Merck Millipore (PDK1) 14-452 (PDK1); none given for Akt3
T4 sequence (Q9Y243 whole entry): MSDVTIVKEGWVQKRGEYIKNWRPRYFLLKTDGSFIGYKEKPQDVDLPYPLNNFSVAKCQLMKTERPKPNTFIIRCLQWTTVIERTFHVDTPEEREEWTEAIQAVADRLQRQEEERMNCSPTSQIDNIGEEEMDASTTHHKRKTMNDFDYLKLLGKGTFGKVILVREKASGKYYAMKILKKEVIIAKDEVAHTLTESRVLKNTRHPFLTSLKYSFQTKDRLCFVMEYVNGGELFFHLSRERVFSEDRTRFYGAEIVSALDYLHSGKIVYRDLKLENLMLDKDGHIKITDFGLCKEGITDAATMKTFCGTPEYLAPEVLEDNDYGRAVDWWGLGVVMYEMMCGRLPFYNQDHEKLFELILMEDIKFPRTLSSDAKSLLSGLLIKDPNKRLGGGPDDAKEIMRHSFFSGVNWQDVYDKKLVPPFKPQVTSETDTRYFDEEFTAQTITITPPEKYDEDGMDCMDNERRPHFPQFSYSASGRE
How it was run: as §1

[5] = molecular target: T5, p-Akt3 in WM115 cells (Homo sapiens, UniProt Q9Y243); assay: Phospho-Akt cellular SureFire assay, p-Akt3 in WM115 cells; assay type: cell-based; conditions: insulin stimulated, read-out: Biological Assay 2 IC50 (nM) Akt3 WM115
T5 construct: SureFire assays to detect cellular p-Akt1, p-Akt2 and p-Akt3 levels in WM115 cells (Akt2/3) and LNCaP cells (Akt1); endogenous in cells; host or cells: WM115 (ECACC 91061232), insulin-stimulated
T5 sequence (Q9Y243 whole entry): as above
Excerpt: as §2, §3, §4
Total Akt3 antibody (R&D Systems MAB 1463)
as §5, §6, §7, §8

[6] = molecular target: T6, p-Akt1 in LNCaP cells (Homo sapiens, UniProt P31749); assay: Phospho-Akt cellular SureFire assay, p-Akt1 in LNCaP cells; assay type: cell-based; conditions: read-out: Biological Assay 2 IC50 (nM) Akt1 LNCaP
T6 construct: SureFire assays to detect cellular p-Akt1, p-Akt2 and p-Akt3 levels in WM115 cells (Akt2/3) and LNCaP cells (Akt1); endogenous in cells; host or cells: LNCaP (ECACC 89110211)
T6 sequence (P31749 whole entry): as the sequence (P31749 whole entry) above
Excerpt: as §2, §3
AlphaScreen® SureFire™ Phospho-Akt1 (pThr308) Kit from Perkin Elmer (TGRA2S10K)
LNCaP cells (ECACC, 89110211) cultured in RPMI-1640 culture media (Fisher, 10665193) supplemented with 2 mM L-glutamine, 1% sodium pyruvate and 10% FBS
as §6, §7, §8

Compound | IC50 [1] | IC50 [2] | IC50 [3] | IC50 [4] | IC50 [5] | IC50 [6]
CC(=O)N(C)[C@H]1CC[C@H](CC(=O)Nc2cnc(-c3ccc(C4(N)CC(F)(F)C4)cc3)c(-c3ccccc3)c2)CC1 [Example 5] | 3900 nM | 3000 nM | 800 nM | 110 nM | 61 nM | –
COC(=O)N(C)[C@H]1CC[C@H](CC(=O)Nc2cnc(-c3ccc(C4(N)CC4)c(F)c3)c(-c3ccccc3)c2)CC1 [Example 62, Methyl (trans-4-(2-((6-(4-(1-aminocyclopropyl)-3-fluorophenyl)-5-phenylpyridin-3-yl)amino)-2-oxoethyl)cyclohexyl)(methyl)carbamate] | > 30000 nM | – | 2300 nM | 170 nM | 360 nM | > 30000 nM
CCN(C(=O)OC)[C@H]1CC[C@H](CC(=O)Nc2cc(-c3ccccc3)c(-c3ccc([C@]4(N)C[C@](C)(O)C4)cc3)cn2)CC1 [Example 116, Methyl (trans-4-(2-((5-(4-(trans-1-amino-3-hydroxy-3-methylcyclobutyl)phenyl)-4-phenylpyridin-2-yl)amino)-2-oxoethyl)cyclohexyl) (ethyl)carbamate] | > 30000 nM | 1400 nM | 220 nM | 21 nM | 72 nM | –
CCC(=O)N(C)[C@H]1CC[C@H](CC(=O)Nc2cc(-c3ccccc3)c(-c3ccc([C@]4(N)C[C@H](F)C4)cc3)nn2)CC1 [Example 123, N-(trans-4-(2-((6-(4-(trans-1-amino-3-fluorocyclobutyl)phenyl)-5-phenylpyridazin-3-yl)amino)-2-oxoethyl)cyclohexyl)-N-methylpropionamide] | > 25000 nM | 1700 nM | 230 nM | 12 nM | 38 nM | –
CC(=O)N(C)[C@H]1CC[C@H](CC(=O)Nc2cc(-c3ccccc3)c(-c3ccc([C@]4(N)C[C@](C)(O)C4)c(F)c3)cn2)CC1 [Example 111, N-(5-(4-(trans-1-amino-3-hydroxy-3-methylcyclobutyl)-3-fluorophenyl)-4-phenylpyridin-2-yl)-2-(trans-4-(N-methylacetamido)cyclohexyl)acetamide] | > 27000 nM | 3200 nM | 1400 nM | 68 nM | 29 nM | –
C[C@]1(O)C[C@@](N)(c2ccc(-c3nnc(NC(=O)C[C@H]4CC[C@H](N5CCOC5=O)CC4)nc3-c3ccccc3F)cc2)C1 [Example 68, N-(6-(4-(trans-1-amino-3-hydroxy-3-methylcyclobutyl)phenyl)-5-(2-fluorophenyl)-1,2,4-triazin-3-yl)-2-(trans-4-(2-oxooxazolidin-3-yl)cyclohexyl)acetamide] | 6400 nM | – | 860 nM | 99 nM | 410 nM | > 30000 nM
CC(C)(N)c1ccc(-c2ncc(NC(=O)C[C@H]3CC[C@H](N4CCCCC4=O)CC3)cc2-c2ccccc2)cc1 [Example 28, N-(6-(4-(2-aminopropan-2-yl)phenyl)-5-phenylpyridin-3-yl)-2-(trans-4-(2-oxopiperidin-1-yl)cyclohexyl)acetamide] | > 30000 nM | – | 7000 nM | 440 nM | 260 nM | > 30000 nM
CCC(=O)N(C)[C@H]1CC[C@H](CC(=O)Nc2cc(-c3ccccc3)c(-c3ccc([C@]4(N)C[C@](C)(O)C4)c(F)c3)cn2)CC1 [Example 112, N-(trans-4-(2-((5-(4-(trans-1-amino-3-hydroxy-3-methylcyclobutyl)-3-fluorophenyl)-4-phenylpyridin-2-yl)amino)-2-oxoethyl)cyclohexyl)-N-methylpropionamide] | > 30000 nM | 3400 nM | 1300 nM | 55 nM | 31 nM | –
CCC(=O)N(CC)[C@H]1CC[C@H](CC(=O)Nc2cc(-c3ccccc3)c(-c3ccc([C@]4(N)C[C@](C)(O)C4)cc3)cn2)CC1 [Example 115, N-(trans-4-(2-((5-(4-(trans-1-amino-3-hydroxy-3-methylcyclobutyl)phenyl)-4-phenylpyridin-2-yl)amino)-2-oxoethyl)cyclohexyl)-N-ethylpropionamide] | > 30000 nM | 1000 nM | 330 nM | 24 nM | 15 nM | –
CC(=O)N(C)[C@H]1CC[C@H](CC(=O)Nc2cc(-c3ccccc3F)c(-c3ccc([C@]4(N)C[C@](C)(O)C4)cc3)cn2)CC1 [Example 94, N-(5-(4-(trans-1-amino-3-hydroxy-3-methylcyclobutyl)phenyl)-4-(2-fluorophenyl)pyridin-2-yl)-2-(trans-4-(N-methylacetamido)cyclohexyl)acetamide] | 20000 nM | 550 nM | 120 nM | 11 nM | 13 nM | –

Next, values leading:

IC50 [1] | IC50 [2] | IC50 [3] | IC50 [4] | IC50 [5] | IC50 [6] | Compound
11000 nM | 1300 nM | 270 nM | 7 nM | 43 nM | – | CC(=O)N(C)[C@H]1CC[C@H](CC(=O)Nc2cc(-c3ccccc3)c(-c3ccc(C4(N)CCC4)cc3)nn2)CC1 [Example A56, N-(6-(4-(1-aminocyclobutyl)phenyl)-5-phenylpyridazin-3-yl)-2-(trans-4-(N-methylacetamido)cyclohexyl)acetamide]
1500 nM | 12000 nM | 420 nM | 62 nM | 1000 nM | – | Cc1nncn1[C@H]1CC[C@H](CC(=O)Nc2cnc(-c3ccc(C4(N)CCC4)cc3)c(-c3ccccc3)c2)CC1 [Example A17, N-(6-(4-(1-aminocyclobutyl)phenyl)-5-phenylpyridin-3-yl)-2-(trans-4-(3-methyl-1,2,4-triazol-4-yl)cyclohexyl)acetamide]
10000 nM | 4700 nM | 300 nM | 15 nM | 180 nM | – | CCOC(=O)N(C)[C@H]1CC[C@H](CC(=O)Nc2cc(-c3ccsc3)c(-c3ccc([C@]4(N)C[C@](C)(O)C4)cc3)cn2)CC1 [Example A90, Ethyl (trans-4-(2-((5-(4-(trans-1-amino-3-hydroxy-3-methylcyclobutyl)phenyl)-4-(thiophen-3-yl)pyridin-2-yl)amino)-2-oxoethyl)cyclohexyl)(methyl)carbamate]
> 25000 nM | – | 590 nM | 22 nM | 240 nM | > 30000 nM | COC(=O)N(C)[C@H]1CC[C@H](CC(=O)Nc2cc(-c3ccccc3)c(-c3ccc(C4(N)CC4)cc3)nn2)CC1 [Example A77, Methyl (trans-4-(2-((6-(4-(1-aminocyclopropyl)phenyl)-5-phenylpyridazin-3-yl)amino)-2-oxoethyl)cyclohexyl)(methyl)carbamate]
